Data: ChEMBL document CHEMBL6153035, “Natural and Semisynthetic Immunomodulatory Luakuliide Labdane Diterpenoids” (J Nat Prod, 2025)
Active and inactive are the calls of the source. The calls are words filed in the database; no cut-off is given here.

Legend:
RAW264.7 [1] = assay: Cytotoxicity against LPS-stimulated mouse RAW264.7 cells assessed as reduction in cellular metabolism at 10 uM incubated for 8 hrs by MTT assay; format: toxicity, cell-based; settings: raw264.7, 8 h
RAW264.7 [2] = assay: Antiinflammatory activity against LPS-stimulated mouse RAW264.7 cells assessed as reduction in TNF production at 1 to 1000 nM preincubated with compound for 8 hrs followed by LPS-induction and measured after 48 hrs by ELISA based assay; format: functional, cell-based; settings: dose 1-1000 nM, time 56.0 hrs
[3] = Cytotoxicity against LPS-stimulated mouse BMDM cells assessed as changes in cellular metabolism at 1 to 100 nM for 8 hrs by MTT assay; format: toxicity, cell-based; settings: 0.1 µM, dose 1-100 nM
BMDM [4] = assay: Antiinflammatory activity against LPS-stimulated mouse BMDM cells assessed as reduction in TNF production at 1 to 100 nM preincubated with compound for 8 hrs followed by LPS-induction and measured after 48 hrs by ELISA assay; format: functional, cell-based; settings: dose 1-100 nM, time 56.0 hrs
BMDM [5] = assay: Antiinflammatory activity against LPS-stimulated mouse BMDM cells assessed as reduction in IL-6 production at 1 to 100 nM preincubated with compound for 8 hrs followed by LPS-induction and measured after 48 hrs by ELISA assay; format: functional, cell-based; settings: dose 1-100 nM, time 56.0 hrs
[6] = Cytotoxicity against LPS-stimulated mouse BMDM cells assessed as reduction in cellular metabolism at 1 to 100 nM incubated for 8 hrs in presence of 500 ng/mL of LPS-stimulation by MTT assay; format: toxicity, cell-based; settings: 0.1 µM, dose 1-100 nM
[7] = Cytotoxicity against IFN-gamma/LPS-stimulated mouse BMDM cells assessed as changes in cellular metabolism at 1 to 100 nM primed with 20 U/mL of IFN-gamma followed by 200 ng/mL of LPS stimulation in presence of compound at 1 to 100 nM for 48 hrs by MTT assay; format: toxicity, cell-based; settings: 0.1 µM, dose 1-100 nM
BMDM [8] = assay: Antiinflammatory activity against IFN-gamma and LPS-stimulated mouse BMDM cells assessed as reduction in IL-6 production at 1 to 100 nM primed with 20 U/mL of IFN-gamma followed by 200 ng/mL of LPS stimulation in presence of compound for 48 hrs by ELISA assay; format: functional, cell-based; settings: dose 1-100 nM
BMDM [9] = assay: Antiinflammatory activity against IFN-gamma and LPS-stimulated mouse BMDM cells assessed as reduction in IL-12 production at 1 to 100 nM primed with 20 U/mL of IFN-gamma followed by 200 ng/mL of LPS stimulation in presence of compound for 48 hrs by ELISA assay; format: functional, cell-based; settings: dose 1-100 nM
BMDM [10] = assay: Antiinflammatory activity against IFN-gamma and LPS-stimulated mouse BMDM cells assessed as change in NO production at 1 to 100 nM primed with 20 U/mL of IFN-gamma followed by 200 ng/mL of LPS stimulation in presence of compound for 48 hrs by […] assay; format: functional, cell-based; settings: dose 1-100 nM
BMDM [11] = assay: Antiinflammatory activity against IFN-gamma and LPS-stimulated mouse BMDM cells assessed as change in IL-10 secretion at 1 to 100 nM primed with 20 U/mL of IFN-gamma followed by 200 ng/mL of LPS stimulation in presence of compound for 48 hour by ELISA assay; format: functional, cell-based; settings: dose 1-100 nM
BMDM [12] = assay: Antiinflammatory activity against LPS-stimulated mouse BMDM cells assessed as induction of TNF production at 1 to 100 nM preincubated with compound for 8 hrs followed by LPS-induction and measured after 48 hrs by ELISA assay; format: functional, cell-based; settings: dose 1-100 nM, time 56.0 hrs
RAW264.7 [13] = assay: Cytotoxicity against LPS-stimulated mouse RAW264.7 cells assessed as changes in cellular metabolism at 1 to 10000 nM incubated for 8 hrs by MTT assay; format: toxicity, cell-based; settings: raw264.7, 8 h, 10 µM, dose 1-10000 nM
RAW264.7 [14] = assay: Cytotoxicity against LPS-stimulated mouse RAW264.7 cells assessed as reduction in cellular metabolism at 3.2 uM incubated for 8 hrs by MTT assay; format: toxicity, cell-based; settings: raw264.7, 8 h
BMDM [15] = assay: Antiinflammatory activity against LPS-stimulated mouse BMDM cells assessed as reduction in IL-6 production at 10 to 100 nM preincubated with compound for 8 hrs followed by LPS-induction and measured after 48 hrs by ELISA assay; format: functional, cell-based; settings: dose 10-100 nM, time 56.0 hrs
BMDM [16] = assay: Antiinflammatory activity against LPS-stimulated mouse BMDM cells assessed as reduction in TNF production preincubated with compound for 8 hrs followed by LPS-induction and measured after 48 hrs by ELISA assay; format: functional, cell-based; settings: dose 1-100 nM, time 56.0 hrs
BMDM [17] = assay: Antiinflammatory activity against LPS-stimulated mouse BMDM cells assessed as reduction IL-6 production at 1 to 100 nM preincubated with compound for 8 hrs followed by LPS-induction and measured after 48 hrs by ELISA assay; format: functional, cell-based; settings: dose 1-100 nM, time 56.0 hrs

| Structure (SMILES) | Activity (RAW264.7 [1]) | Activity (RAW264.7 [2]) | Activity [3] | Activity (BMDM [4]) | Activity (BMDM [5]) | Activity [6] | Activity [7] | Activity (BMDM [8]) | Activity (BMDM [9]) | Activity (BMDM [10]) | Activity (BMDM [11]) | Activity (BMDM [12]) | Activity (RAW264.7 [13]) | Activity (RAW264.7 [14]) | Activity (BMDM [15]) | Activity (BMDM [16]) | Activity (BMDM [17]) |
| --- | --- | --- | --- | --- | --- | --- | --- | --- | --- | --- | --- | --- | --- | --- | --- | --- | --- |
| CC1(C)CCC[C@@]23[C@H](O)O[C@@](C)(CC[C@@H]12)[C@@H]3CCC1=CCN(CC(=O)O)C1=O | Toxic | Active | Non-toxic | Active | Active | – | – | – | – | – | – | – | – | – | – | – | – |
| CO[C@@H]1O[C@@]2(C)CC[C@H]3C(C)(C)CCC[C@@]13[C@H]2CCC1=CCOC1=O | Toxic | inactive | Non-toxic | – | – | Toxic | Toxic | Active | Active | inactive | Active | Active | – | – | – | – | – |
| CC1(C)CCC[C@@]23[C@H](O)O[C@@](C)(CC[C@@H]12)[C@@H]3CCc1ccoc1 | – | inactive | Non-toxic | – | – | Toxic | – | – | – | – | – | Active | Non-toxic | – | – | – | – |
| CC1=C(CCc2ccoc2)[C@@]2(C=O)CCCC(C)(C)[C@@H]2CC1 | Toxic | inactive | Non-toxic | – | – | Toxic | – | inactive | inactive | – | – | Active | – | Toxic | Active | – | – |
| CC1=C(CCC2=CCOC2=O)[C@@]2(C=O)CCCC(C)(C)[C@@H]2CC1 | Toxic | inactive | Non-toxic | – | – | Toxic | Toxic | Active | Active | inactive | Active | – | – | – | Active | – | – |
| CC1=C(CCc2cc(Br)oc2Br)[C@@]2(C=O)CCCC(C)(C)[C@@H]2CC1 | Toxic | inactive | Non-toxic | – | – | – | Toxic | Active | Active | inactive | Active | – | – | Toxic | – | Dose-dependent-effect | inactive |
| CC(=O)O[C@@H]1O[C@@]2(C)CC[C@H]3C(C)(C)CCC[C@@]13[C@H]2CCc1ccoc1 | Toxic | Active | – | – | – | – | – | – | – | – | – | – | – | Toxic | – | – | – |
| CC1=CC[C@H]2C(C)(C)CCC[C@]2(C=O)[C@H]1CCc1ccoc1 | Toxic | inactive | Non-toxic | – | – | Toxic | – | inactive | inactive | – | – | Active | – | Toxic | – | – | inactive |
